These results are taken from patent publication US8697739B2, “Bicyclic acetyl-CoA carboxylase inhibitors and uses thereof” (Novartis AG, priority 2010, dated 2014).

Where only a bound is given, the exact number is not on record here.

T1 sequence (O00763 144-2458): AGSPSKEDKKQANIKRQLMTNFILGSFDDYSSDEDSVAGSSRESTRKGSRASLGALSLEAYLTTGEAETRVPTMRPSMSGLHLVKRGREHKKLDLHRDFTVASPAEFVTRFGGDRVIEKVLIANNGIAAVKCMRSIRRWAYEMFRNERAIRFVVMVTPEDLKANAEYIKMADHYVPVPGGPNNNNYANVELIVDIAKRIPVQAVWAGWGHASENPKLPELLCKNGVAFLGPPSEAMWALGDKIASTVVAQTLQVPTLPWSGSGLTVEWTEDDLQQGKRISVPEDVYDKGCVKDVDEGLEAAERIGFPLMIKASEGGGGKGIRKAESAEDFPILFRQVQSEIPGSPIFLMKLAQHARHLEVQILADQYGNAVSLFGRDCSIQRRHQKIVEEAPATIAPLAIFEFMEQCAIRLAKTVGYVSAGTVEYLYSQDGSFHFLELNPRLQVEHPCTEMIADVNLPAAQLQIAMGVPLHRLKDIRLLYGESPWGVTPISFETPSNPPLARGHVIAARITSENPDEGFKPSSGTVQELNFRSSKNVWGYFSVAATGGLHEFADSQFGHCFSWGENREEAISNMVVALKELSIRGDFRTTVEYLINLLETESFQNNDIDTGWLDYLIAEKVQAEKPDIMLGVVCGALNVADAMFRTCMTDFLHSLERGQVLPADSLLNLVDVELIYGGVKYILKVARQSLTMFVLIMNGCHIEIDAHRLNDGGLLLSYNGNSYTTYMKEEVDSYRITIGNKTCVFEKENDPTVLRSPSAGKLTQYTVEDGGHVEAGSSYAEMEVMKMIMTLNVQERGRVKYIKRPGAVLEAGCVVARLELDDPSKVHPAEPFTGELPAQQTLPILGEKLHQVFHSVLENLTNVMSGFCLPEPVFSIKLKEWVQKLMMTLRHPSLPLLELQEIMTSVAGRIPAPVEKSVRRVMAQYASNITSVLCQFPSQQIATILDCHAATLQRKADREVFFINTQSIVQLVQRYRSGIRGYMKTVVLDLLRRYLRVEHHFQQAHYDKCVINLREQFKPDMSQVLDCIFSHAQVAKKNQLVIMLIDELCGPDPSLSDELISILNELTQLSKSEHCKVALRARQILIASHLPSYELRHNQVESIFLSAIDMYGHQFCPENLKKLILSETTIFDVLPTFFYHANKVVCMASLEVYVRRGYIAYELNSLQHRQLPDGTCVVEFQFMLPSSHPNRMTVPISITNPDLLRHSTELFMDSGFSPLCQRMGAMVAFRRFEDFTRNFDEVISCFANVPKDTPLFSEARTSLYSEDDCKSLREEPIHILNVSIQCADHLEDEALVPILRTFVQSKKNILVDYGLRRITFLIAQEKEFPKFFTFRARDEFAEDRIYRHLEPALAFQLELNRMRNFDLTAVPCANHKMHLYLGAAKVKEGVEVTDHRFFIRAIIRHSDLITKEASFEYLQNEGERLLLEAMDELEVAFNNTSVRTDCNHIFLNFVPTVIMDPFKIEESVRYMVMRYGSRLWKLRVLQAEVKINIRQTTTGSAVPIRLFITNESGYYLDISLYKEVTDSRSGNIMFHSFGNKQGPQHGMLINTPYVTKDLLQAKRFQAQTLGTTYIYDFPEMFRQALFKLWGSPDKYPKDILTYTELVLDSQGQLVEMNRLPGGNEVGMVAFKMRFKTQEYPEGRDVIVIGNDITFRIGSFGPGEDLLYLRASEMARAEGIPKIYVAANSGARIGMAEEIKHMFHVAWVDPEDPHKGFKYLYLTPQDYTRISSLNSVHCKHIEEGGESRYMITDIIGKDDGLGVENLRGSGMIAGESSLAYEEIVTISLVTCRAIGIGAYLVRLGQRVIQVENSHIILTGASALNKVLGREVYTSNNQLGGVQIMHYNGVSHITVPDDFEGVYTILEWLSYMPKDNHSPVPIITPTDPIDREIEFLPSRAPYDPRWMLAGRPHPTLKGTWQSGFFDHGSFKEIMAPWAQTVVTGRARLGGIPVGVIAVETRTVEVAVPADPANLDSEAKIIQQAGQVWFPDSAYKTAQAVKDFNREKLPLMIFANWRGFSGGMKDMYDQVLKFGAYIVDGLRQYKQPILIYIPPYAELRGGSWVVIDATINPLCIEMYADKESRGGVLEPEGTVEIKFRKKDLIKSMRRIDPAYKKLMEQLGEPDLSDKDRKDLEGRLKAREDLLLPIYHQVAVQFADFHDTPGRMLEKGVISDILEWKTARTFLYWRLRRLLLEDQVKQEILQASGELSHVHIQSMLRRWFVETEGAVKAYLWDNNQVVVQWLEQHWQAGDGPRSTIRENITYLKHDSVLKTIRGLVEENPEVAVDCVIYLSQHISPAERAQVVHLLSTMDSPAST

The assay addresses T1, human acetyl-CoA carboxylase 2 (ACC2) (Homo sapiens, UniProt O00763).
T1 construct: The cDNA encoding amino acids 144 to 2458 of human acetyl-CoA carboxylase 2; made in house; host or cells: Sf9 insect cells (baculovirus, pFastBac1)
Briefly: Acetyl-CoA carboxylase enzyme assay (malonyl-CoA formation by LC/MS/MS). As to conditions: recombinant human ACC2 (aa 144-2458); read-out: IC50 ACC2. Type of assay: biochemical. The method in brief: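 Malonyl-CoA formation was read by LC/MS/MS MRM against a [13C3]-malonyl-CoA internal standard, after acetic acid quench. The enzyme was baculovirus/Sf9-expressed human ACC2 residues 144–2458, given 15 minutes room-temperature compound preincubation in HEPES pH 7.5 buffer with MgCl2, citrate and DTT. Substrate solution held 50 μM acetyl-CoA, 120 μM ATP and 2 mM KHCO3.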
With `C[C@@H](NC(=O)[C@H]1CC[C@H](NS(=O)(=O)c2ccc3[nH]c(-c4cccc(C(=O)O)c4)nc3c2)CC1)c1ccccc1` [Example 279, 3-(5-(N-((1R,4r)-4-((R)-1-phenylethylcarbamoyl)cyclohexyl)sulfamoyl)-1H-benzo[d]imidazol-2-yl)benzoic acid], the IC50 amounted to 100 nM.

As for `C[C@@H](NC(=O)[C@H]1CC[C@H](NS(=O)(=O)c2ccc3[nH]c(-c4ccncc4)nc3c2)CC1)c1ccccc1` [Example 280, (1r,4R)-N-((R)-1-phenylethyl)-4-(2-(pyridin-4-yl)-1H-benzo[d]imidazole-5-sulfonamido)cyclohexanecarboxamide], the IC50 stood at 12 nM.

Regarding `C[C@@H](NC(=O)[C@H]1CC[C@H](NS(=O)(=O)c2ccc3[nH]c(-c4cccnc4)nc3c2)CC1)c1ccccc1` [Example 281, (1r,4R)-N-((R)-1-phenylethyl)-4-(2-(pyridin-3-yl)-1H-benzo[d]imidazole-5-sulfonamido)cyclohexanecarboxamide], the IC50 came out at 11 nM.

For the molecule `C[C@@H](NC(=O)[C@H]1CC[C@H](NS(=O)(=O)c2ccc3cc(-c4ccccc4)[nH]c3c2)CC1)c1ccccc1` [Example 282, (1r,4R)-4-(2-phenyl-1H-indole-6-sulfonamido)-N-((R)-1-phenylethyl)cyclohexanecarboxamide], the IC50 amounted to 18 nM.

Consider `CC(NC(=O)[C@H]1CC[C@H](NS(=O)(=O)c2ccc3[nH]c(-c4cccnc4)cc3c2)CC1)c1ccncc1` (some centres unmarked) [Example 283, (1r,4r)-4-(2-(pyridin-3-yl)-1H-indole-5-sulfonamido)-N-(1-(pyridin-4-yl)ethyl)cyclohexanecarboxamide], for which the IC50 was 256 nM.

For the molecule `C[C@@H](NC(=O)[C@H]1CC[C@H](NS(=O)(=O)c2ccc3[nH]c(-c4cccnc4)cc3c2)CC1)c1ccccc1` [Example 284, (1r,4R)-N-((R)-1-phenylethyl)-4-(2-(pyridin-3-yl)-1H-indole-5-sulfonamido)cyclohexanecarboxamide], the IC50 was 14 nM.

Consider `C[C@@H](NC(=O)[C@H]1CC[C@H](NS(=O)(=O)c2ccc3[nH]c(-c4cccnc4)cc3c2)CC1)c1ccc(F)cc1` [Example 285, (1r,4R)-N-((R)-1-(4-fluorophenyl)ethyl)-4-(2-(pyridin-3-yl)-1H-indole-5-sulfonamido)cyclohexanecarboxamide], for which the IC50 stood at 12 nM.

Regarding `CCC(C)NC(=O)[C@H]1CC[C@H](NS(=O)(=O)c2ccc3[nH]c(-c4cccnc4)cc3c2)CC1` (some centres unmarked) [Example 286, (1r,4r)-N-sec-butyl-4-(2-(pyridin-3-yl)-1H-indole-5-sulfonamido)cyclohexanecarboxamide], the IC50 turned out to be 342 nM.

Regarding `CCC(C)NC(=O)[C@H]1CC[C@H](NS(=O)(=O)c2ccc3[nH]c(-c4cccnc4)cc3c2)CC1` (stereo partly drawn) [Example 287, (1r,4R)-N-sec-butyl-4-(2-(pyridin-3-yl)-1H-indole-5-sulfonamido)cyclohexanecarboxamide], the IC50 was 196 nM.

Turning to `CC(C)N(C)C(=O)[C@H]1CC[C@H](NS(=O)(=O)c2ccc3[nH]c(-c4cccnc4)cc3c2)CC1` [Example 288, (1r,4r)-N-isopropyl-N-methyl-4-(2-(pyridin-3-yl)-1H-indole-5-sulfonamido)cyclohexanecarboxamide], the IC50 was 400 nM.

For `CC(C)[C@@H](C)NC(=O)[C@H]1CC[C@H](NS(=O)(=O)c2ccc3[nH]c(-c4cccnc4)cc3c2)CC1` [Example 289, (1r,4R)-N-((R)-3-methylbutan-2-yl)-4-(2-(pyridin-3-yl)-1H-indole-5-sulfonamido)cyclohexanecarboxamide], the IC50 amounted to 234 nM.

`C[C@@H](NC(=O)[C@H]1CC[C@H](NS(=O)(=O)c2ccc3cc(C4CC4)[nH]c3c2)CC1)c1ccc(F)cc1` [Example 290, (1r,4R)-4-(2-cyclopropyl-1H-indole-6-sulfonamido)-N-((R)-1-(4-fluorophenyl)ethyl)cyclohexanecarboxamide]: the IC50 is 28 nM.

`C[C@@H](NC(=O)[C@H]1CC[C@H](NS(=O)(=O)c2ccc3cc(-c4ccccc4Cl)[nH]c3c2)CC1)c1ccc(F)cc1` [Example 291, (1r,4R)-4-(2-(2-chlorophenyl)-1H-indole-6-sulfonamido)-N-((R)-1-(4-fluorophenyl)ethyl)cyclohexanecarboxamide]: the IC50 amounted to 17 nM.

With `Cc1ccccc1-c1cc2ccc(S(=O)(=O)N[C@H]3CC[C@H](C(=O)N[C@H](C)c4ccc(F)cc4)CC3)cc2[nH]1` [Example 292, (1r,4R)-N-((R)-1-(4-fluorophenyl)ethyl)-4-(2-o-tolyl-1H-indole-6-sulfonamido)cyclohexanecarboxamide], the IC50 is 12 nM.

For `COc1ccccc1-c1cc2ccc(S(=O)(=O)N[C@H]3CC[C@H](C(=O)N[C@H](C)c4ccc(F)cc4)CC3)cc2[nH]1` [Example 293], the IC50 was 38 nM.

As for `C[C@@H](NC(=O)[C@H]1CC[C@H](NS(=O)(=O)c2ccc3cc(C4CC4)[nH]c3c2)CC1)c1ccccn1` [Example 294, (1r,4R)-4-(2-cyclopropyl-1H-indole-6-sulfonamido)-N-((R)-1-(pyridin-2-yl)ethyl)cyclohexanecarboxamide], the IC50 is 279 nM.

For `C[C@@H](NC(=O)[C@H]1CC[C@H](NS(=O)(=O)c2ccc3cc(-c4c(Cl)cccc4Cl)[nH]c3c2)CC1)c1ccc(F)cc1` [Example 295, (1r,4R)-4-(2-(2,6-dichlorophenyl)-1H-indole-6-sulfonamido)-N-((R)-1-(4-fluorophenyl)ethyl)cyclohexanecarboxamide], the IC50 stood at 475 nM.

`C[C@@H](NC(=O)[C@H]1CC[C@H](NS(=O)(=O)c2ccc3cc(-c4ccc(CO)cc4)[nH]c3c2)CC1)c1ccc(F)cc1` [Example 296, (1r,4R)-N-((R)-1-(4-fluorophenyl)ethyl)-4-(2-(4-(hydroxymethyl)phenyl)-1H-indole-6-sulfonamido)cyclohexanecarboxamide]: the IC50 is under 10 nM.

Take `COc1ccc(-c2cc3ccc(S(=O)(=O)N[C@H]4CC[C@H](C(=O)N[C@H](C)c5ccc(F)cc5)CC4)cc3[nH]2)c(C)c1` [Example 297, (1r,4R)-N-((R)-1-(4-fluorophenyl)ethyl)-4-(2-(4-methoxy-2-methylphenyl)-1H-indole-6-sulfonamido)cyclohexanecarboxamide]: the IC50 turned out to be 17 nM.

As for `Cc1ccc(C)c(-c2cc3ccc(S(=O)(=O)N[C@H]4CC[C@H](C(=O)N[C@H](C)c5ccc(F)cc5)CC4)cc3[nH]2)c1` [Example 298, (1r,4R)-4-(2-(2,5-dimethylphenyl)-1H-indole-6-sulfonamido)-N-((R)-1-(4-fluorophenyl)ethyl)cyclohexanecarboxamide], the IC50 came to 24 nM.

Consider `C[C@@H](NC(=O)[C@H]1CC[C@H](NS(=O)(=O)c2ccc3cc(-c4ccccc4CO)[nH]c3c2)CC1)c1ccc(F)cc1` [Example 299, (1r,4R)-N-((R)-1-(4-fluorophenyl)ethyl)-4-(2-(2-(hydroxymethyl)phenyl)-1H-indole-6-sulfonamido)cyclohexanecarboxamide], for which the IC50 was found to be 11 nM.

In the case of `COC(=O)c1ccc(-c2cc3ccc(S(=O)(=O)N[C@H]4CC[C@H](C(=O)N[C@H](C)c5ccc(F)cc5)CC4)cc3[nH]2)c(C)c1` [Example 300], the IC50 was determined as 10 nM.

Turning to `Cc1cc(C(=O)O)ccc1-c1cc2ccc(S(=O)(=O)N[C@H]3CC[C@H](C(=O)N[C@H](C)c4ccc(F)cc4)CC3)cc2[nH]1` [Example 301, 4-(6-(N-((1R,4r)-4-((R)-1-(4-fluorophenyl)ethylcarbamoyl)cyclohexyl)sulfamoyl)-1H-indol-2-yl)-3-methylbenzoic acid], the IC50 is under 10 nM.

Turning to `Cc1cc(CO)ccc1-c1cc2ccc(S(=O)(=O)N[C@H]3CC[C@H](C(=O)N[C@H](C)c4ccc(F)cc4)CC3)cc2[nH]1` [Example 302, (1r,4R)-N-((R)-1-(4-fluorophenyl)ethyl)-4-(2-(4-(hydroxymethyl)-2-methylphenyl)-1H-indole-6-sulfonamido)cyclohexanecarboxamide], the IC50 is under 10 nM.

Consider `CC(C)Cc1cc2ccc(S(=O)(=O)N[C@H]3CC[C@H](C(=O)N[C@H](C)c4ccc(F)cc4)CC3)cc2[nH]1` [Example 303, (1r,4R)-N-((R)-1-(4-fluorophenyl)ethyl)-4-(2-isobutyl-1H-indole-6-sulfonamido)cyclohexanecarboxamide], for which the IC50 stood at 575 nM.

Take `C[C@@H](NC(=O)[C@H]1CC[C@H](NS(=O)(=O)c2ccc3cc(C4CCCC4)[nH]c3c2)CC1)c1ccc(F)cc1` [Example 304, (1r,4R)-4-(2-cyclopentyl-1H-indole-6-sulfonamido)-N-((R)-1-(4-fluorophenyl)ethyl)cyclohexanecarboxamide]: the IC50 stood at 180 nM.

On to `C[C@@H](NC(=O)[C@H]1CC[C@H](NS(=O)(=O)c2ccc3cc(CCO)[nH]c3c2)CC1)c1ccc(F)cc1` [Example 305, (1r,4R)-N-((R)-1-(4-fluorophenyl)ethyl)-4-(2-(2-hydroxyethyl)-1H-indole-6-sulfonamido)cyclohexanecarboxamide], for which the IC50 is 60 nM.

Regarding `C[C@@H](NC(=O)[C@H]1CC[C@H](NS(=O)(=O)c2ccc3cc(CCOS(C)(=O)=O)[nH]c3c2)CC1)c1ccc(F)cc1` [Example 306, 2-(6-(N-((1R,4r)-4-((R)-1-(4-fluorophenyl)ethylcarbamoyl)cyclohexyl)sulfamoyl)-1H-indol-2-yl)ethyl methanesulfonate], the IC50 was determined as 50 nM.

Regarding `C[C@@H](NC(=O)[C@H]1CC[C@H](NS(=O)(=O)c2ccc3cc(-c4ccccc4C#N)[nH]c3c2)CC1)c1ccc(F)cc1` [Example 307, (1r,4R)-4-(2-(2-cyanophenyl)-1H-indole-6-sulfonamido)-N-((R)-1-(4-fluorophenyl)ethyl)cyclohexanecarboxamide], the IC50 amounted to 10 nM.
